Source: patent US5140023A, “Azatetracycle compounds” (G. D. Searle & Co., priority 1991, dated 1992)
Where a name gives a salt, the structure may show the parent alone.

Columns and labels:
gastric emptying = assay: Rat gastric emptying of a test meal (prokinetic activity); assay type: in vivo, rat (male Charles River, Crl: COBS, CD (SD) BR); conditions: 30 min before test meal, rats sacrificed 60 min after meal
Excerpt: Alternatively, the compounds of formula I wherein p is 1, A is NH and B is NH or 0 can be prepared by treating ArNH2 (37) with compounds of formula 38 (an isocyanate or activated carbonyl derivative of azatetracycles 11, 26, 32 or 35). L1 is as described above. […] Prokinetic activity of a compound can be determined by measuring the enhancement of gastric emptying of a meal in a rat model to which the compound has been administered. This method for determining prokinetic activity of a compound has been described by Droppleman, et al, J. Pharmacol. and Methods 4: 227-230 (1980).
A test meal for measuring gastric emptying in rats was prepared. Ten grams of methylcellulose (2% solution=15 centipoises; Aldrich Chemical Company, Milwaukee, Wis.) was added to 200ml of cold water and mixed at 20,000 rpm in a Waring blender to insure dispersion and hydration of the methylcellulose. In addition, two beef bouillon cubes (Wyler's, Columbus, Ohio) dissolved in 100ml of warm water was added to the mixture, followed by 16g of casein (Hammersten, Schwartz/Mann, Orangeburg, N.Y.), 8g of powdered confectioners sugar and 8g of cornstarch. The ingredients were mixed for two minutes at 20,000 rpm and the resultant test meal was refrigerated for 48 hours to allow trapped air to escape. Male Charles River Rats, Crl: COBS, CD (SD) BR Strain, 180-200g body weight, were used in groups of six animals. The animals were food deprived for 24 hours prior to the experiment with access to water ad libitum. The compounds to be evaluated were prepared in a 0.5% aqueous methylcellulose solution. If insoluble, the mixture was homogenized for two minutes at 5500 rpm using a Try R-Stir-R. The compounds were injected intraperitoneally at a volume of 5 ml/kg, 30 minutes before the test meal, (3.0ml/rat i.g.). Control animals received only the vehicle. Sixty minutes after the test meal, the rats were sacrificed by cervical dislocation. The stomachs were removed intact and weighed. The stomachs were kept opened, gently rinsed with tap water, blotted dry with paper towelling, and the empty stomach weighed. The difference between the weight of the full and empty stomach is indicative of the amount of meal remaining in the stomach. The amount of meal remaining in the stomach was subtracted from the weight of 3ml of the test meal to determine the amount of food emptied from the stomach during the test. Weight of the test meal was determined by weighing three samples (3ml) at the beginning and three samples at the end of each experiment and calculating the mean. The mean and standard error of the amount of meal emptied were calculated.
The results of following the protocol and comparing representative compounds herein to known prokinetic agents, metoclopramide and cisapride, are shown in Table III.

5-HT3 = target: T1, 5-HT3 (Canis lupus familiaris, UniProt Q1HHV2); assay: Antiemetic activity against cisplatin-induced emesis in beagle dogs; assay type: in vivo; conditions: for ED50: dog, iv, i.v. 30 min before and 2 h after cisplatin 3 mg/kg i.v., emetic episodes counted 5 h, read-out: ID50 (50% inhibition of the number of emetic episodes)
T1 construct: from tissue; host or cells: living beagle dogs (in vivo, i.v. dosing); endogenous receptor
T1 sequence (Q1HHV2 24-483): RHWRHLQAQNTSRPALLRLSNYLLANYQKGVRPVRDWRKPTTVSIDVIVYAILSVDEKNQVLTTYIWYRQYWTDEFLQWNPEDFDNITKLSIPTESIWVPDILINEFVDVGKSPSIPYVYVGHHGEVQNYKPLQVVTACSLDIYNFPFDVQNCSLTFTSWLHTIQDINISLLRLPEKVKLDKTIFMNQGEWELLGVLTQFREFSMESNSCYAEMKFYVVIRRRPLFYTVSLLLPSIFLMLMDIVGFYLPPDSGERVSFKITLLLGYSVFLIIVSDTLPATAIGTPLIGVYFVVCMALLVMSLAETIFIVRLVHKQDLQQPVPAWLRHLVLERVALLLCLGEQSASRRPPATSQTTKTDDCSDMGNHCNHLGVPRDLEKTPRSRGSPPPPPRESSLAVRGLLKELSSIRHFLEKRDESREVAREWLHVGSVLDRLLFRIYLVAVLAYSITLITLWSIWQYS
Method: 5-HT3 antagonism can be determined in a model of emesis induced by the chemotherapeutic agent cisplatin as described herein.
Antiemetic activity of test compound against cisplatin was determined in beagle dogs. Dogs are pretreated I.V. with a test compound dissolved in DMSO thirty minutes before administration of cisplatin 3 mg/kg.i.v. with a second dose of compounds given i.v. two hours after cisplatin administration. Emetic episodes are counted for 5 hours following cisplatin administration. The latency for first emesis and the number of emetic episodes for test compounds are compared with results for control treatment (vehicle).
Per cent inhibition of emesis for each animal is determined by the following formula: [formula] A mean inhibitory dose (ID50) which results in 50% inhibition of the number of emetic episodes is determined.

Structure (SMILES) | % increase in gastric emptying (gastric emptying; 1.0 mg/kg ip) | % increase in gastric emptying (gastric emptying; 3.0 mg/kg ip) | % increase in gastric emptying (gastric emptying; 10.0 mg/kg ip) | ED50 (5-HT3) | other results
COc1cc(N)c(Cl)cc1C(=O)NC1CCN2CCCC1C2 (centres unmarked) [BRL-24924] | 29.8% | 34.2% | 35.2% | 0.1 mg/kg | –
CCN(CC)CCNC(=O)c1cc(Cl)c(N)cc1OC [METOCLOPRAMIDE, metoclopramide] | 2.6% | 11.2% | 34.1% | – | –
COc1cc(N)c(Cl)cc1C(=O)NC1CCN(CCCOc2ccc(F)cc2)CC1OC (centres unmarked) [Cisapride, cisapride] | 9.8% | 15.4% | 25.0% | 0.6 mg/kg | –
CN1[C@@H]2CC[C@H]1C[C@@H](OC(=O)c1c[nH]c3ccccc13)C2 [ICS 205-930] | – | – | – | 0.01 mg/kg | –
COc1cc(N)c(Cl)cc1C(=O)NC1CN2CCC1CC2 (centres unmarked) [ZACOPRIDE] | 11.8% | 9.3% | 18.5% | – | % increase in gastric emptying (gastric emptying; 0.3 mg/kg ip): 1.4%; % increase in gastric emptying (gastric emptying; 30.0 mg/kg ip): 6.3%
Cn1nc(C(=O)N[C@H]2[C@H]3C[C@@H]4CN(C3)C[C@@H]42)c2ccccc21 (relative stereo) [Example 27, (±)-N-(hexahydro-1H-2,5β-methano-3aα,6aα-cyclopenta[c]pyrrol-4α-yl)-1-methyl-1H-indazole-3-carboxamide, hydrochloride] | – | – | – | 0.1 mg/kg | % inhibition (of emesis) (5-HT3; cisplatin 3 mg/kg i.v., printed in parentheses under 0.10 mg/kg iv): 72%
COc1cc(N)c(Cl)cc1C(=O)N[C@H]1[C@H]2C[C@@H]3CN(C2)C[C@@H]31 (relative stereo) [Example 12, 2-methoxy-4-amino-5-chloro-N-(hexahydro-1H-2,5B-methano-3aα, 6aα-cyclopenta[c]pyrrol-4α-yl)benzamidehydrochloride] | 45.3% | – | – | 0.03 mg/kg | % increase in gastric emptying (gastric emptying; 0.001 mg/kg ip): -5.8%; % increase in gastric emptying (gastric emptying; 0.01 mg/kg ip): 2.0%; % increase in gastric emptying (gastric emptying; 0.03 mg/kg ip): 16.4%; % increase in gastric emptying (gastric emptying; 0.1 mg/kg ip): 31.3%; % increase in gastric emptying (gastric emptying; 0.3 mg/kg ip): 32.1%
